In BigSolDB 2.1:

CC1=NN(c2ccccc2)C(=O)C1
solubility (mole fraction)
Details | 283.15 K | 288.15 K | 293.15 K | 298.15 K | 303.15 K | 308.15 K | 313.15 K | 318.15 K | 323.15 K | 328.15 K
in 1,2-dichloroethane | 0.0262 | 0.0304 | 0.0358 | 0.0417 | 0.0496 | 0.058 | 0.0676 | 0.0767 | 0.089 | –
in 2-butanone | 0.02 | 0.024 | 0.0313 | 0.0372 | 0.0437 | 0.0557 | 0.0678 | 0.081 | 0.121 | –
in MIBK | 0.0107 | 0.0138 | 0.0198 | 0.0243 | 0.0311 | 0.0365 | 0.0414 | 0.0495 | 0.0609 | –
in dimethyl carbonate | 0.0118 | 0.0138 | 0.0166 | 0.0201 | 0.0257 | 0.0316 | 0.0384 | 0.0458 | 0.0573 | –
in ethyl lactate | 0.0293 | 0.0319 | 0.0352 | 0.0392 | 0.0424 | 0.0486 | 0.0531 | 0.0594 | 0.0735 | –
in isobutyl acetate | – | 0.0109 | 0.0123 | 0.0142 | 0.0162 | 0.0192 | 0.0229 | 0.0268 | 0.0309 | 0.0367
in isopentanol | 0.0191 | 0.021 | 0.023 | 0.0261 | 0.0282 | 0.0312 | 0.0353 | 0.0403 | 0.0466 | –
in isopropyl acetate | 0.00972 | 0.0117 | 0.0141 | 0.0162 | 0.0187 | 0.0223 | 0.0265 | 0.032 | 0.036 | –
in methyl acetate | 0.0161 | 0.0182 | 0.0201 | 0.0237 | 0.0266 | 0.0299 | 0.0349 | 0.0422 | 0.0477 | –
in n-butyl acetate | 0.0124 | 0.0142 | 0.0164 | 0.0195 | 0.0227 | 0.0265 | 0.0305 | 0.037 | 0.0423 | –
in n-hexane | 0.000173 | 0.000226 | 0.000394 | 0.00052 | 0.000662 | 0.000963 | 0.00136 | 0.00172 | 0.00211 | –
in n-propyl acetate | 0.0142 | 0.0169 | 0.0197 | 0.0228 | 0.0276 | 0.0318 | 0.0384 | 0.0451 | 0.0551 | –
